Source: ChEMBL document CHEMBL4507300 (2021)

Experiments:
[1] = tested on: Epidermal growth factor receptor (Homo sapiens), P00533 [T790M]; conditions: Compound concentration 1000.0 nM
[2] = biological target: Ankyrin repeat and protein kinase domain-containing protein 1 (Homo sapiens) (UniProt Q8NFD2); conditions: Compound concentration 1000.0 nM
[3] = tested on: Epidermal growth factor receptor (Homo sapiens), P00533 [L858R]; conditions: Compound concentration 1000.0 nM
[4] = biological target: Activin receptor type-2B (Homo sapiens) (UniProt Q13705); conditions: Compound concentration 1000.0 nM
[5] = biological target: Serine/threonine-protein kinase Nek6 (Homo sapiens) (UniProt Q9HC98); conditions: Compound concentration 1000.0 nM
[6] = biological target: Serine/threonine-protein kinase mTOR (Homo sapiens) (UniProt P42345); conditions: Compound concentration 1000.0 nM
[7] = biological target: Serine/threonine-protein kinase 10 (Homo sapiens) (UniProt O94804); conditions: Compound concentration 1000.0 nM
[8] = biological target: Serine/threonine-protein kinase 32B (Homo sapiens) (UniProt Q9NY57); conditions: Compound concentration 1000.0 nM
[9] = biological target: Serine/threonine-protein kinase PLK4 (Homo sapiens) (UniProt O00444); conditions: Compound concentration 1000.0 nM
[10] = biological target: Myosin-IIIa (Homo sapiens) (UniProt Q8NEV4); conditions: Compound concentration 1000.0 nM
[11] = biological target: Serine/threonine-protein kinase tousled-like 2 (Homo sapiens) (UniProt Q86UE8); conditions: Compound concentration 1000.0 nM
[12] = biological target: Cyclin-dependent kinase 4 (Homo sapiens) (UniProt P11802); conditions: Compound concentration 1000.0 nM
[13] = biological target: Ephrin type-B receptor 2 (Homo sapiens) (UniProt P29323); conditions: Compound concentration 1000.0 nM
[14] = biological target: Serine/threonine-protein kinase haspin (Homo sapiens) (UniProt Q8TF76); conditions: Compound concentration 1000.0 nM
[15] = biological target: Fibroblast growth factor receptor 3 (Homo sapiens) (UniProt P22607); conditions: Compound concentration 1000.0 nM
[16] = biological target: Myosin light chain kinase 2, skeletal/cardiac muscle (Homo sapiens) (UniProt Q9H1R3); conditions: Compound concentration 1000.0 nM
[17] = biological target: D(4) dopamine receptor (Homo sapiens) (UniProt P21917); conditions: Compound concentration 10.0 uM
[18] = tested on: Phosphatidylinositol 4,5-bisphosphate 3-kinase catalytic subunit alpha isoform (Homo sapiens), P42336 [Q546K]; conditions: Compound concentration 1000.0 nM
[19] = biological target: 1-phosphatidylinositol 3-phosphate 5-kinase (Homo sapiens) (UniProt Q9Y2I7); conditions: Compound concentration 1000.0 nM
[20] = biological target: Mitogen-activated protein kinase kinase kinase 20 (Homo sapiens) (UniProt Q9NYL2); conditions: Compound concentration 1000.0 nM
[21] = biological target: Angiopoietin-1 receptor (Homo sapiens) (UniProt Q02763); conditions: Compound concentration 1000.0 nM
[22] = biological target: Serine/threonine-protein kinase D3 (Homo sapiens) (UniProt O94806); conditions: Compound concentration 1000.0 nM
[23] = biological target: Phosphatidylinositol 4-phosphate 3-kinase C2 domain-containing subunit beta (Homo sapiens) (UniProt O00750); conditions: Compound concentration 1000.0 nM
[24] = tested on: Tyrosine-protein kinase ABL1 (Homo sapiens), P00519 [F317I]; conditions: Compound concentration 1000.0 nM
[25] = biological target: Serine/threonine-protein kinase PknB (Mycobacterium tuberculosis) (UniProt P9WI81); conditions: Compound concentration 1000.0 nM
[26] = biological target: Phosphatidylinositol 4-phosphate 5-kinase type-1 gamma (Homo sapiens) (UniProt O60331); conditions: Compound concentration 1000.0 nM
[27] = biological target: Mitogen-activated protein kinase kinase kinase 2 (Homo sapiens) (UniProt Q9Y2U5); conditions: Compound concentration 1000.0 nM
[28] = biological target: Histamine H3 receptor (Homo sapiens) (UniProt Q9Y5N1); conditions: Compound concentration 10.0 uM
[29] = biological target: Interferon-induced, double-stranded RNA-activated protein kinase (Homo sapiens) (UniProt P19525); conditions: Compound concentration 1000.0 nM
[30] = biological target: D(3) dopamine receptor (Homo sapiens) (UniProt P35462); conditions: Compound concentration 10.0 uM
[31] = biological target: Tyrosine-protein kinase JAK3 (Homo sapiens) (UniProt P52333); conditions: Compound concentration 1000.0 nM
[32] = biological target: Mitogen-activated protein kinase kinase kinase 7 (Homo sapiens) (UniProt O43318); conditions: Compound concentration 1000.0 nM
[33] = biological target: Dual specificity protein kinase TTK (Homo sapiens) (UniProt P33981); conditions: Compound concentration 1000.0 nM
[34] = biological target: Cyclin-dependent kinase 11A (Homo sapiens) (UniProt Q9UQ88); conditions: Compound concentration 1000.0 nM
[35] = biological target: Mast/stem cell growth factor receptor Kit (Homo sapiens) (UniProt P10721); conditions: Compound concentration 1000.0 nM
[36] = biological target: Serine/threonine-protein kinase/endoribonuclease IRE1 (Homo sapiens) (UniProt O75460); conditions: Compound concentration 1000.0 nM
[37] = biological target: Dual serine/threonine and tyrosine protein kinase (Homo sapiens) (UniProt Q6XUX3); conditions: Compound concentration 1000.0 nM
[38] = biological target: Muscarinic acetylcholine receptor M2 (Homo sapiens) (UniProt P08172); conditions: Compound concentration 10.0 uM
[39] = biological target: Serine/threonine-protein kinase PLK3 (Homo sapiens) (UniProt Q9H4B4); conditions: Compound concentration 1000.0 nM
[40] = biological target: Histamine H4 receptor (Homo sapiens) (UniProt Q9H3N8); conditions: Compound concentration 10.0 uM
[41] = biological target: Ephrin type-B receptor 3 (Homo sapiens) (UniProt P54753); conditions: Compound concentration 1000.0 nM
[42] = biological target: Ephrin type-B receptor 1 (Homo sapiens) (UniProt P54762); conditions: Compound concentration 1000.0 nM
[43] = biological target: NUAK family SNF1-like kinase 1 (Homo sapiens) (UniProt O60285); conditions: Compound concentration 1000.0 nM
[44] = biological target: Atypical kinase COQ8B, mitochondrial (Homo sapiens) (UniProt Q96D53); conditions: Compound concentration 1000.0 nM
[45] = biological target: ALK tyrosine kinase receptor (Homo sapiens) (UniProt Q9UM73); conditions: Compound concentration 1000.0 nM

D(3) dopamine receptor (Homo sapiens), sequence (P35462 whole entry): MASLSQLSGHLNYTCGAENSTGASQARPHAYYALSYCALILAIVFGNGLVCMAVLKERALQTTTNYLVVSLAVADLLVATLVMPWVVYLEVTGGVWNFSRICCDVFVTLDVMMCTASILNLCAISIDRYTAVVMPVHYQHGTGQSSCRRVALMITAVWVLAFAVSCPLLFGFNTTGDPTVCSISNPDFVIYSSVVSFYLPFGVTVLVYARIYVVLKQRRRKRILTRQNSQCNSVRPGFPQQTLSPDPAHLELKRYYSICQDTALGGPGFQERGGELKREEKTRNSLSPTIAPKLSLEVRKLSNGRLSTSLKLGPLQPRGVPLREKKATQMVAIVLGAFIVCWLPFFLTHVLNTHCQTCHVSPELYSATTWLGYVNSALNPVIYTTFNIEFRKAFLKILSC
Ephrin type-B receptor 1 (Homo sapiens), sequence (P54762 whole entry): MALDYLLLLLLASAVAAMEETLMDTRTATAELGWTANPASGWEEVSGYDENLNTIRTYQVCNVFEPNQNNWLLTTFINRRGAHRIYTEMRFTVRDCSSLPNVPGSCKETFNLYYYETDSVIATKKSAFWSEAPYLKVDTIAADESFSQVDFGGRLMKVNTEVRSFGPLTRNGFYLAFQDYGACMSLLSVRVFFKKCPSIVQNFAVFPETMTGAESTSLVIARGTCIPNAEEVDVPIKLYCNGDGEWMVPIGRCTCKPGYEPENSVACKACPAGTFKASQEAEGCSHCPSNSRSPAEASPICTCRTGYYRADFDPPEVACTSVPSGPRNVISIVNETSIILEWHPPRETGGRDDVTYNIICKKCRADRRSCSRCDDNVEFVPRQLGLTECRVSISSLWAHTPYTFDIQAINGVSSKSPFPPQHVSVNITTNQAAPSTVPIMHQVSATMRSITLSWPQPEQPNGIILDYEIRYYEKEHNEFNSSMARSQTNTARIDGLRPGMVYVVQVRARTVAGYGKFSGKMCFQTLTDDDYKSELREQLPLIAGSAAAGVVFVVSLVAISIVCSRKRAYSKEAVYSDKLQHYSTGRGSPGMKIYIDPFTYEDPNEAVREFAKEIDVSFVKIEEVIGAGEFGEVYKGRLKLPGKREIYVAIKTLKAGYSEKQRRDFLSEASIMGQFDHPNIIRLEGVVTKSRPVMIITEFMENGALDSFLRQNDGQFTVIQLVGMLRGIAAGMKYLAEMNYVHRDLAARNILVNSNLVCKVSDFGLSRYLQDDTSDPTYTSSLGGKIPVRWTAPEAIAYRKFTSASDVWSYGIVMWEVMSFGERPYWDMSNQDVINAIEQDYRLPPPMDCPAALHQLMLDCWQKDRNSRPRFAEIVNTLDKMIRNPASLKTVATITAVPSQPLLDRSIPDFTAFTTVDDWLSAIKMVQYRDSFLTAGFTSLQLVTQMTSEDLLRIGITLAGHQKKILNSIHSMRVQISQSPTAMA
Cyclin-dependent kinase 4 (Homo sapiens), sequence (P11802 whole entry): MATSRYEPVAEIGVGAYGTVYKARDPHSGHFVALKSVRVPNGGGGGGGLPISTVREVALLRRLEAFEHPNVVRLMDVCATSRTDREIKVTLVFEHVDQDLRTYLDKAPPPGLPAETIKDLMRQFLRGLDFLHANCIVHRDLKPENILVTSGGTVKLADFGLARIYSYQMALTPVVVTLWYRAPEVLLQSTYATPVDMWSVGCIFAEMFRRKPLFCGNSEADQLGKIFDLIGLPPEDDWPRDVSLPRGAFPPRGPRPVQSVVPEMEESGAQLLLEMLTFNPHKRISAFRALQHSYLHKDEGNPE
1-phosphatidylinositol 3-phosphate 5-kinase (Homo sapiens), sequence (Q9Y2I7 whole entry): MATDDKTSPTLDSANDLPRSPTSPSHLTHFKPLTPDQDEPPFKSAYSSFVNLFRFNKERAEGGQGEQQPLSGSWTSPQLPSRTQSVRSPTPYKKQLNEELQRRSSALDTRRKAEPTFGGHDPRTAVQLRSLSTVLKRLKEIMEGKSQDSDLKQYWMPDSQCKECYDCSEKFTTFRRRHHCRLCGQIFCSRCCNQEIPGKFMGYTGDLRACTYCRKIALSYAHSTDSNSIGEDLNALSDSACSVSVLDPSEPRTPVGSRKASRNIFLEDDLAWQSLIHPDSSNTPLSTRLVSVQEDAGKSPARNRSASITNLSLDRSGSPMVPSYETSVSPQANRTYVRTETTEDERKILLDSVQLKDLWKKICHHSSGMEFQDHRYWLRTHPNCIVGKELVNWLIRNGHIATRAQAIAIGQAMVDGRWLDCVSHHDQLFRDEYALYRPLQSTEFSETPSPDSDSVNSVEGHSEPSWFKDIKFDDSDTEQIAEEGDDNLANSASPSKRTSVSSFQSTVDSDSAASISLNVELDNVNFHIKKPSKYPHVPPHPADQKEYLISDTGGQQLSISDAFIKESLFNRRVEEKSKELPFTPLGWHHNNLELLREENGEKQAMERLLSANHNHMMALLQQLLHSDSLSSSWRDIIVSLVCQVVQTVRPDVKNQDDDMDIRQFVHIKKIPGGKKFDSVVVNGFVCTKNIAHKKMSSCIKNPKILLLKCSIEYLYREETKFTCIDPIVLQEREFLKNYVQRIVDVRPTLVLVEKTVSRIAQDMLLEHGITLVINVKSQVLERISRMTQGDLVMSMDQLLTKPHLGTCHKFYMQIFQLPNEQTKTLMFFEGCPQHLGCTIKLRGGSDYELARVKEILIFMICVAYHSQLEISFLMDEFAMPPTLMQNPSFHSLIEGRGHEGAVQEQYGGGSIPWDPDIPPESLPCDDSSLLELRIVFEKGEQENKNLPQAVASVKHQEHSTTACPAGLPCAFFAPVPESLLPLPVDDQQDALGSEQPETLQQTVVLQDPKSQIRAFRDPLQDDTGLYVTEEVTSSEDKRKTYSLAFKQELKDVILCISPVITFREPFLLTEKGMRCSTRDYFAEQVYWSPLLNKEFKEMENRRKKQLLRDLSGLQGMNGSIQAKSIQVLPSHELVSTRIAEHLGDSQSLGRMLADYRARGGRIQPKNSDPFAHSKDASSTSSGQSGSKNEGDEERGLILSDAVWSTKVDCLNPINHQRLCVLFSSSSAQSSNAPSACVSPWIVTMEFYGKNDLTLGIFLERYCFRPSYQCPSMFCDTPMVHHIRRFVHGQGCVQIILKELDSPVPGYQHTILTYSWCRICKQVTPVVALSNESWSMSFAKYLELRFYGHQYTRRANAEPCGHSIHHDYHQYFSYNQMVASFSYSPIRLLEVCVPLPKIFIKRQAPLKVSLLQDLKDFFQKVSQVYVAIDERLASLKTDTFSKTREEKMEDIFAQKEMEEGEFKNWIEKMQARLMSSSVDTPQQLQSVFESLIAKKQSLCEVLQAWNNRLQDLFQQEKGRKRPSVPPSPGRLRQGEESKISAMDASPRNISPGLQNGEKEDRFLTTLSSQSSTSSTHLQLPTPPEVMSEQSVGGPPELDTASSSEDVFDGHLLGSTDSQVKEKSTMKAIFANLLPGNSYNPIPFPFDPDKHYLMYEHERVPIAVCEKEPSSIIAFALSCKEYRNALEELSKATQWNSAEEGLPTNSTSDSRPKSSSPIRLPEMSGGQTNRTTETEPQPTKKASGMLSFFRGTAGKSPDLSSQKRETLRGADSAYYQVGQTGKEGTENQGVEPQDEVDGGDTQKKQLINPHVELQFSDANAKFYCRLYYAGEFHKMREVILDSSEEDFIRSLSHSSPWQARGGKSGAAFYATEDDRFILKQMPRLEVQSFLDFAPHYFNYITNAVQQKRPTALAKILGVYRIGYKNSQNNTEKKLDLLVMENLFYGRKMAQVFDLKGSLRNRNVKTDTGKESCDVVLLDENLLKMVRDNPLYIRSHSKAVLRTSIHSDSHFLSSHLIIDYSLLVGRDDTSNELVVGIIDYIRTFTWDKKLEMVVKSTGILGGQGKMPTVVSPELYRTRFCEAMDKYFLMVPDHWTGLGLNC
Serine/threonine-protein kinase PLK4 (Homo sapiens), sequence (O00444 whole entry): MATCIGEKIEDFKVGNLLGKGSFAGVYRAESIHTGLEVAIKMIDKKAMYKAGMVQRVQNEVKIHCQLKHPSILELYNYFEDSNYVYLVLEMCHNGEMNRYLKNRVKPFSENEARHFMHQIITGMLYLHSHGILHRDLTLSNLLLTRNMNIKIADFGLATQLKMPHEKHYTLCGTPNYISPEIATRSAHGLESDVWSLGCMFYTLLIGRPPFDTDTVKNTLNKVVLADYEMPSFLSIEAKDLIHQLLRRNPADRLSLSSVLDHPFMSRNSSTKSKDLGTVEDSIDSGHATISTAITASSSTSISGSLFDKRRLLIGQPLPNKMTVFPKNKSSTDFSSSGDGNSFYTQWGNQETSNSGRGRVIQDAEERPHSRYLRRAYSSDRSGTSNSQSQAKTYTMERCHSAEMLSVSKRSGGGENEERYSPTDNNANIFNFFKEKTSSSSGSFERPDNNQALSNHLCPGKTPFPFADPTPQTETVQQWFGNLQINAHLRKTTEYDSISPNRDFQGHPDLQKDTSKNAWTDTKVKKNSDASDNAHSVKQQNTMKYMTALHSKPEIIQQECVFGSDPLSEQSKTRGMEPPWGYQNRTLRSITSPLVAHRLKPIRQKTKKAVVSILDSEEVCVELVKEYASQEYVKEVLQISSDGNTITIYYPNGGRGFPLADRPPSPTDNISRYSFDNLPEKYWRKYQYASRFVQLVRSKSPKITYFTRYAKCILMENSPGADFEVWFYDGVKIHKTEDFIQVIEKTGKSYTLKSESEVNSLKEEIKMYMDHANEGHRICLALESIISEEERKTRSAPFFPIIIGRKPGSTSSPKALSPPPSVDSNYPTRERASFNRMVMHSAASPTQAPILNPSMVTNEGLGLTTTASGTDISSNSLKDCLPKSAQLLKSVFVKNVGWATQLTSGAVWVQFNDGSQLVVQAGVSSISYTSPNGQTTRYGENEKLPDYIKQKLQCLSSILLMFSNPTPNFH
Serine/threonine-protein kinase Nek6 (Homo sapiens), sequence (Q9HC98 whole entry): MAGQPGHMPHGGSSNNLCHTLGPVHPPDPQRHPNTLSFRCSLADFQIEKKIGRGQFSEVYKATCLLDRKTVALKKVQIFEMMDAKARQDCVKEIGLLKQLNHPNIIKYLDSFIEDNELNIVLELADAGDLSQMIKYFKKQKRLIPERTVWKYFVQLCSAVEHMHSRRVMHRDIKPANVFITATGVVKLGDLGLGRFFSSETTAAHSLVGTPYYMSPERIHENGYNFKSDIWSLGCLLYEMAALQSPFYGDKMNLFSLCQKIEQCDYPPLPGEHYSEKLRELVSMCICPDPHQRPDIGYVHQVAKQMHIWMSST

COc1cccc(CNC(=O)c2nc3scc(COCc4ccc(C(=O)O)cc4)c3c(=O)[nH]2)c1 [T-26c]
inactive: residual activity [1] 92.1% | residual activity [2] 70.9% | residual activity [3] 88.3% | residual activity [4] 100% | residual activity [5] 71% | residual activity [6] 100% | residual activity [7] 67.8% | residual activity [8] 93.4% | residual activity [9] 83% | residual activity [10] 88% | residual activity [11] 100% | residual activity [12] 61.7% | residual activity [13] 95.7% | residual activity [14] 92.5% | residual activity [15] 100% | residual activity [16] 100% | inhibition [17] 13.9% | residual activity [18] 70.4% | residual activity [19] 100% | residual activity [20] 85.5% | residual activity [21] 100% | residual activity [22] 100% | residual activity [23] 80.6% | residual activity [24] 96.4% | residual activity [25] 93% | residual activity [26] 63.7% | residual activity [27] 65.5% | inhibition [28] -9.59% | residual activity [29] 97.7% | inhibition [30] 10.5% | residual activity [31] 78.4% | residual activity [32] 60.2% | residual activity [33] 92.8% | residual activity [34] 99.2% | residual activity [35] 93% | residual activity [36] 89.7% | residual activity [37] 54.5% | inhibition [38] -2.95% | residual activity [39] 65.3% | inhibition [40] 17.6% | residual activity [41] 85.4% | residual activity [42] 90.9% | residual activity [43] 86.6% | residual activity [44] 93.8% | residual activity [45] 92%
